Data published in patent US4016166A, “1-Nitrophenylquinazoline-2,4(1H,3H)-diones” (Hisamitsu Pharmaceutical Co., Inc., priority 1973, dated 1977).
Read-outs that look alike come from different tables or passages of the source.

What was measured:
carrageenin edema = assay: Anti-inflammatory effect (carrageenin edema, hind paw, rat); format: in vivo, Wistar-strain male rats; conditions: oral, 3 hours after carrageenin, read-out: anti-inflammatory effect (inhibition percentage of carrageenin edema)
Protocol: A group of five Wistar-strain male rats (100-150 g) were orally administered with each test compound suspended in 0.5 % tragacanth-saline solution. After 30 minutes 0.5 %-1.0 % carrageenin suspended in the water for injection was injected subcutaneously to a hind paw. After 3 hours the carrageenin edema was measured by volume and the inhibition percentage was determined with respect to the results for the control animals. The inhibition percentages were shown with the notations as follows: […]

dd-strain male mice = format: in vivo; conditions: mouse, 72 hours
Protocol: The lethal dose was estimated from the death of animals 72 hours after administration.

righting reflex = assay: Central nervous system depressive effect (disappearance of righting reflex, mouse); format: in vivo, dd-strain male mice; conditions: ip, read-out: CNS depressive effect (dose required for disappearance of righting reflex)
Protocol: Each test compound suspended in 0.5 % tragacanth-saline solution was injected intraperitoneally to dd-strain male mice (16-24 g). The disappearance of righting reflex was observed under noiseless circumstances. The dose required for the dissappearance of righting reflex is indicated with the following notations: […]

[1] = system: acetic acid writhing syndrome; assay: Analgetic effect (acetic acid writhing, mouse); format: in vivo, dd-strain male mice; conditions: oral, read-out: analgetic effect ED50 (95% C.L.)
From the text: Each test compound suspended in 0.5 % tragacanth-saline solution was orally administered to dd-strain male mice (18-20 g). After one hour 0.6 % acetic acid solution was intraperitoneally injected in a volume of […].

O=c1c2ccccc2n(-c2cccc([N+](=O)[O-])c2)c(=O)n1CCO [Compound 13]
inhibition in vivo at 50 mg/kg (carrageenin edema): 31 to 45%
acute toxicity (lethal dose) (dd-strain male mice; p.o.): 2000 mg/kg
minimal effective dose (righting reflex; mouse): 10 to 30 mg/kg
ED50 [1]: 2.25 mg/kg

O=c1c2ccccc2n(-c2cccc([N+](=O)[O-])c2)c(=O)n1CC1CC1
inhibition in vivo at 10 mg/kg (carrageenin edema): 31 to 45%
inhibition in vivo at 50 mg/kg (carrageenin edema): 46 to 60%
acute toxicity (lethal dose) (dd-strain male mice; i.p.): 1000 mg/kg
minimal effective dose (righting reflex; mouse): 100 to 300 mg/kg

Cn1c(=O)c2ccccc2n(-c2cccc([N+](=O)[O-])c2)c1=O [Compound 2, 1-(m-nitrophenyl)-3-methylquinazoline-2,4(1H, 3H)-dione]
inhibition in vivo at 10 mg/kg (carrageenin edema): 31 to 45%
inhibition in vivo at 50 mg/kg (carrageenin edema): 46 to 60%
acute toxicity (lethal dose) (dd-strain male mice; i.p.): > 1000 mg/kg
acute toxicity (lethal dose) (dd-strain male mice; p.o.): > 2000 mg/kg
minimal effective dose (righting reflex; mouse): 100 to 300 mg/kg
ED50 [1]: 12.5 mg/kg

C=CCn1c(=O)c2ccccc2n(-c2cccc([N+](=O)[O-])c2)c1=O [Compound 6, 1-(m-nitrophenyl)-3-allylquinazoline-2,4(1H, 3H)-dione]
inhibition in vivo at 10 mg/kg (carrageenin edema): 16 to 30%
inhibition in vivo at 50 mg/kg (carrageenin edema): 31 to 45%
acute toxicity (lethal dose) (dd-strain male mice; i.p.): > 1000 mg/kg
acute toxicity (lethal dose) (dd-strain male mice; p.o.): 2000 mg/kg
minimal effective dose (righting reflex; mouse): > 1000 mg/kg
ED50 [1]: > 100 mg/kg

CC(=O)OCCn1c(=O)c2ccccc2n(-c2cccc([N+](=O)[O-])c2)c1=O [Compound 18]
inhibition in vivo at 50 mg/kg (carrageenin edema): 16 to 30%
acute toxicity (lethal dose) (dd-strain male mice; i.p.): > 1000 mg/kg
acute toxicity (lethal dose) (dd-strain male mice; p.o.): 2000 mg/kg
minimal effective dose (righting reflex; mouse): 10 to 30 mg/kg
ED50 [1]: 1.7 mg/kg

CCn1c(=O)c2ccccc2n(-c2cccc([N+](=O)[O-])c2)c1=O [Compound 3, 1-(m-nitrophenyl)-3-ethylquinazoline-2,4(1H, 3H)-dione]
inhibition in vivo at 10 mg/kg (carrageenin edema): > 61%
inhibition in vivo at 50 mg/kg (carrageenin edema): > 61%
acute toxicity (lethal dose) (dd-strain male mice; i.p.): > 1000 mg/kg
acute toxicity (lethal dose) (dd-strain male mice; p.o.): > 2000 mg/kg
minimal effective dose (righting reflex; mouse): 30 to 100 mg/kg
ED50 [1]: 6 mg/kg

CCCCC1C(=O)N(c2ccccc2)N(c2ccccc2)C1=O [phenylbutazone, reference compound]
minimal effective dose (righting reflex; mouse): 300 to 1000 mg/kg

O=c1c2ccccc2n(-c2cccc([N+](=O)[O-])c2)c(=O)n1CCF [Compound 10]
inhibition in vivo at 10 mg/kg (carrageenin edema): > 61%
inhibition in vivo at 50 mg/kg (carrageenin edema): 46 to 60%
acute toxicity (lethal dose) (dd-strain male mice; i.p.): > 1000 mg/kg
acute toxicity (lethal dose) (dd-strain male mice; p.o.): > 2000 mg/kg
minimal effective dose (righting reflex; mouse): 30 to 100 mg/kg
ED50 [1]: 1.48 mg/kg

CCn1c(=O)c2ccccc2n(-c2cccc([N+](=O)[O-])c2)c1=S [Compound 24, 1-(m-nitrophenyl)-3-ethyl-2-thio-4-oxo-1,2,3,4-tetrahydroquinazoline]
inhibition in vivo at 10 mg/kg (carrageenin edema): 31 to 45%
inhibition in vivo at 50 mg/kg (carrageenin edema): 46 to 60%
acute toxicity (lethal dose) (dd-strain male mice; i.p.): > 1000 mg/kg
minimal effective dose (righting reflex; mouse): 300 to 1000 mg/kg
ED50 [1]: 3.4 mg/kg

O=c1c2ccccc2n(-c2cccc([N+](=O)[O-])c2)c(=O)n1CCCl [Compound 11]
inhibition in vivo at 50 mg/kg (carrageenin edema): 16 to 30%
acute toxicity (lethal dose) (dd-strain male mice; i.p.): > 1000 mg/kg
acute toxicity (lethal dose) (dd-strain male mice; p.o.): > 2000 mg/kg
minimal effective dose (righting reflex; mouse): 100 to 300 mg/kg
ED50 [1]: 5.5 mg/kg

CCn1c(=O)c2ccccc2n(-c2cccc(C(F)(F)F)c2)c1=O [R1=drawing 18, R2=C2 H5, reference compound]
inhibition in vivo at 10 mg/kg (carrageenin edema): < 15%
inhibition in vivo at 50 mg/kg (carrageenin edema): 31 to 45%
acute toxicity (lethal dose) (dd-strain male mice; i.p.): 456 mg/kg
acute toxicity (lethal dose) (dd-strain male mice; p.o.): > 4000 mg/kg
minimal effective dose (righting reflex; mouse): > 1000 mg/kg
ED50 [1]: > 100 mg/kg

Cc1ccccc1-n1c(C)nc2ccccc2c1=O [methaqualone, reference compound]
minimal effective dose (righting reflex; Mus musculus): 10 to 30 mg/kg

O=C(O)c1ccccc1Nc1cccc(C(F)(F)F)c1 [flufenamic acid, reference compound]
minimal effective dose (righting reflex; mouse): > 1000 mg/kg

CCOCCn1c(=O)c2ccccc2n(-c2cccc([N+](=O)[O-])c2)c1=O [Compound 16, 1-(m-nitrophenyl)-3-(2-ethoxyethyl)quinazoline-2,4(1H, 3H)-dione]
inhibition in vivo at 50 mg/kg (carrageenin edema): 16 to 30%
acute toxicity (lethal dose) (dd-strain male mice; i.p.): > 1000 mg/kg
acute toxicity (lethal dose) (dd-strain male mice; p.o.): > 2000 mg/kg
minimal effective dose (righting reflex; mouse): 30 to 100 mg/kg
ED50 [1]: 2.15 mg/kg

O=c1c2ccccc2n(-c2cccc([N+](=O)[O-])c2)c(=S)n1CC(F)(F)F [Compound 26]
inhibition in vivo at 50 mg/kg (carrageenin edema): < 15%
acute toxicity (lethal dose) (dd-strain male mice; i.p.): > 1000 mg/kg
acute toxicity (lethal dose) (dd-strain male mice; p.o.): > 2000 mg/kg
minimal effective dose (righting reflex; mouse): > 1000 mg/kg
ED50 [1]: > 100 mg/kg

CCCn1c(=O)c2ccccc2n(-c2cccc([N+](=O)[O-])c2)c1=O [Compound 4, 1-(m-nitrophenyl)-3-propylquinazoline-2,4(1H,3H)-dione]
inhibition in vivo at 10 mg/kg (carrageenin edema): < 15%
inhibition in vivo at 50 mg/kg (carrageenin edema): 16 to 30%
acute toxicity (lethal dose) (dd-strain male mice; i.p.): 1000 mg/kg
acute toxicity (lethal dose) (dd-strain male mice; p.o.): > 2000 mg/kg
minimal effective dose (righting reflex; mouse): > 1000 mg/kg
ED50 [1]: 51 mg/kg

O=c1c2ccccc2n(-c2cccc([N+](=O)[O-])c2)c(=O)n1CCOCCO [Compound 17]
inhibition in vivo at 50 mg/kg (carrageenin edema): 16 to 30%
acute toxicity (lethal dose) (dd-strain male mice; i.p.): 1000 mg/kg
acute toxicity (lethal dose) (dd-strain male mice; p.o.): 2000 mg/kg
minimal effective dose (righting reflex; mouse): 30 to 100 mg/kg
ED50 [1]: 3.7 mg/kg

Cn1c(=O)c2ccccc2n(-c2cccc([N+](=O)[O-])c2)c1=S [Compound 23]
inhibition in vivo at 10 mg/kg (carrageenin edema): < 15%
inhibition in vivo at 50 mg/kg (carrageenin edema): 16 to 30%
acute toxicity (lethal dose) (dd-strain male mice; i.p.): > 1000 mg/kg
minimal effective dose (righting reflex; mouse): > 1000 mg/kg
ED50 [1]: > 100 mg/kg

O=c1c2ccccc2n(-c2cccc(C(F)(F)F)c2)c(=O)n1CCO [R1=drawing 18, R2=CH2 CH2 OH, reference compound]
inhibition in vivo at 10 mg/kg (carrageenin edema): < 15%
inhibition in vivo at 50 mg/kg (carrageenin edema): 31 to 45%
acute toxicity (lethal dose) (dd-strain male mice; i.p.): 200 mg/kg
acute toxicity (lethal dose) (dd-strain male mice; p.o.): 970 mg/kg
minimal effective dose (righting reflex; mouse): 30 to 100 mg/kg
ED50 [1]: 35 mg/kg

O=c1c2ccccc2n(-c2cccc([N+](=O)[O-])c2)c(=O)n1CC(F)(F)F [Compound 12, 1-(m-nitrophenyl)-3-(2,2,2-trifluoroethyl) quinazoline-2,4(1H, 3H)-dione]
inhibition in vivo at 10 mg/kg (carrageenin edema): 16 to 30%
inhibition in vivo at 50 mg/kg (carrageenin edema): 31 to 45%
acute toxicity (lethal dose) (dd-strain male mice; i.p.): > 1000 mg/kg
acute toxicity (lethal dose) (dd-strain male mice; p.o.): > 2000 mg/kg
minimal effective dose (righting reflex; mouse): > 1000 mg/kg
ED50 [1]: 44 mg/kg

CC(C)n1c(=O)c2ccccc2n(-c2cccc([N+](=O)[O-])c2)c1=O
inhibition in vivo at 10 mg/kg (carrageenin edema): 16 to 30%
inhibition in vivo at 50 mg/kg (carrageenin edema): 46 to 60%
acute toxicity (lethal dose) (dd-strain male mice; i.p.): > 1000 mg/kg
acute toxicity (lethal dose) (dd-strain male mice; p.o.): > 2000 mg/kg
minimal effective dose (righting reflex; mouse): 30 to 100 mg/kg
ED50 [1]: 2.9 mg/kg

C#CCn1c(=O)c2ccccc2n(-c2cccc([N+](=O)[O-])c2)c1=O
inhibition in vivo at 10 mg/kg (carrageenin edema): < 15%
inhibition in vivo at 50 mg/kg (carrageenin edema): 31 to 45%
acute toxicity (lethal dose) (dd-strain male mice; i.p.): > 1000 mg/kg
acute toxicity (lethal dose) (dd-strain male mice; p.o.): > 2000 mg/kg
minimal effective dose (righting reflex; mouse): > 1000 mg/kg
ED50 [1]: 40 mg/kg
